What was measured:
[1] = Ratio of AUC in C57BL/6J mouse CSF to AUC in C57BL/6J mouse serum; format: ADME
[2] = AUC in C57BL/6J mouse CSF at 70 mg/kg, ip by CE-UV analysis; format: ADME, organism-based; design: dose 70 mg/kg, route intraperitoneal
[3] = Drug uptake in C57BL/6J mouse eye at 70 mg/kg, ip measured at 20 to 40 mins by CE-UV analysis; format: ADME, organism-based; design: dose 70 mg/kg, route intraperitoneal; settings: in vivo
Brain = test: Drug uptake in C57BL/6J mouse brain at 70 mg/kg, ip measured at 20 to 40 mins by CE-UV analysis; format: ADME, organism-based; design: dose 70 mg/kg, route intraperitoneal; settings: in vivo
[4] = Half life in C57BL/6J mouse serum at 70 mg/kg, ip by CE-UV analysis; format: ADME, organism-based; design: dose 70 mg/kg, route intraperitoneal
[5] = Cmax in C57BL/6J mouse CSF at 70 mg/kg, ip measured at 20 to 40 mins by CE-UV analysis; format: ADME, organism-based, Cerebrospinal fluid; design: dose 70 mg/kg, route intraperitoneal
[6] = AUC in C57BL/6J mouse serum at 70 mg/kg, ip by CE-UV analysis; format: ADME, organism-based, Plasma; design: dose 70 mg/kg, route intraperitoneal

Cn1c(CCCC(=O)O)nc2cc(N(CCCl)CCCl)ccc21 [BENDAMUSTINE]
Ratio AUC [1]: 35%
AUC [2]: 210 µM·h
Drug uptake [3]: Active
Drug uptake (Brain): Active
half-life [4]: 40 min
Cmax [5]: 393 µM
AUC [6]: 575 µM·h

Source: ChEMBL document CHEMBL3217584, “Pharmacokinetics of bendamustine in the central nervous system: chemoinformatic screening followed by validation in a murine model” (Medchemcomm, 2012)
